The experiment deals with Plasmodium berghei. The experiment in a line: Luciferase/luciferin-expressing antifolate-resistant parasites were used to infect a culture of HepG2 cells that were pre-incubated with compounds. Infected hepatocytes emit light due to the luciferase reaction. Assay results are presented as the percent inhibition of light emission compared to control. […]. Type of experiment: functional. Particulars: sporozoite; for IC90: read-out: LUCIFERASE INFECTION ASSAY - IC90.

Results on 29 compounds are retold here after ChEMBL document CHEMBL4483862, “Open-source discovery of chemical leads for next-generation chemoprotective antimalarials” (2018).

SMILES strings stand for the structures.

In general, IC50 refers to the concentration that gives 50% inhibition. One may read the IC90 as the point of the concentration-response curve where the effect stands at 90%. Consider `COCCCNC1=NN=C(c2cc(C)n(-c3ccccc3F)c2C)CS1`, for which the IC90 came to 9.7 µM. Besides, the IC50 (HEPG2TOX_HILL_SLOPE 3.65, HEPG2TOX_R_SQUARED 0.669, PBLUC_HILL_SLOPE 1.05, PBLUC_R_SQUARED 0.653, read-out: LUCIFERASE INFECTION ASSAY - IC50) worked out at 1.2 µM.
For `CNC(=O)CN(c1cc(OCCOC)c(Cl)cc1Cl)S(=O)(=O)c1ccc(OC)cc1`, the IC90 was 0.87 µM. Under “HEPG2TOX_HILL_SLOPE 3.52, HEPG2TOX_R_SQUARED 0.986, PBLUC_HILL_SLOPE 18.4, PBLUC_R_SQUARED 0.669, read-out: LUCIFERASE INFECTION ASSAY - IC50”, the concentration for half-maximal inhibition (IC50) turned out to be 0.771 µM.
As for `O=C(c1cnc2ccc3ccccc3c2c1)c1cc(F)ccc1O`, the IC90 is above 10 µM. In addition, where the note is “HEPG2TOX_HILL_SLOPE 3.61, HEPG2TOX_R_SQUARED 0.979, PBLUC_HILL_SLOPE 3.48, PBLUC_R_SQUARED 0.782, read-out: LUCIFERASE INFECTION ASSAY - IC50”, the IC50 is 5.41 µM.
Turning to `c1ccc(-c2nnc(-c3ccccn3)nc2-c2ccccc2)cc1`, the IC90 stood at 4.22 µM. For the same compound, the IC50 (HEPG2TOX_HILL_SLOPE 3.54, HEPG2TOX_R_SQUARED 0.979, PBLUC_HILL_SLOPE 15.1, PBLUC_R_SQUARED 0.651, read-out: LUCIFERASE INFECTION ASSAY - IC50) came to 3.65 µM.
Regarding `OCc1cccc(-c2cnc3ccc(-c4cccc(Oc5ccccc5)c4)nn23)c1`, the IC90 stood at 4.64 µM. Moreover, the IC50 (HEPG2TOX_HILL_SLOPE 3.57, HEPG2TOX_R_SQUARED 0.188, PBLUC_HILL_SLOPE 2.99, PBLUC_R_SQUARED 0.337, read-out: LUCIFERASE INFECTION ASSAY - IC50) was found to be 2.23 µM.
Take `CC(C(=O)Nc1cccnc1)c1ccc2c(c1)[nH]c1ccc(Cl)cc12` (stereo not drawn): the IC90 is above 9.43 µM. Besides, the half-maximal inhibitory concentration (IC50) (HEPG2TOX_HILL_SLOPE 3.6, HEPG2TOX_R_SQUARED 0.842, PBLUC_HILL_SLOPE 14.2, PBLUC_R_SQUARED 0.432, read-out: LUCIFERASE INFECTION ASSAY - IC50) came out at 8.79 µM.
With `CNc1nc2cnc(Nc3ccccc3)cc2n1Cc1ccco1`, the IC90 is above 10 µM. In addition, the IC50 (HEPG2TOX_HILL_SLOPE 3.53, HEPG2TOX_R_SQUARED 0.949, PBLUC_HILL_SLOPE 2.74, PBLUC_R_SQUARED 0.404, read-out: LUCIFERASE INFECTION ASSAY - IC50) turned out to be 4.93 µM.
On to `O=C(NCc1cn(-c2ccccc2)nc1-c1ccc(Cl)s1)c1ccccc1C(F)(F)F`, for which the IC90 is above 10 µM. Besides, the IC50 (HEPG2TOX_HILL_SLOPE 3.63, HEPG2TOX_R_SQUARED 0.948, PBLUC_HILL_SLOPE 1.32, PBLUC_R_SQUARED 0.654, read-out: LUCIFERASE INFECTION ASSAY - IC50) was found to be 2.44 µM.
Turning to `CN(C)c1ccc(C(c2ccc(OC(F)F)cc2)c2ccc(N(C)C)cc2)cc1`, the IC90 was 6.27 µM. Further, for the setting “HEPG2TOX_HILL_SLOPE 3.6, HEPG2TOX_R_SQUARED 0.971, PBLUC_HILL_SLOPE 3.21, PBLUC_R_SQUARED 0.781, read-out: LUCIFERASE INFECTION ASSAY - IC50”, the concentration for half-maximal inhibition (IC50) is 3.16 µM.
With `CCCNS(=O)(=O)c1cccc(C(=O)N2CCN(c3cccc(OC)c3)CC2)c1`, the IC90 is above 10 µM. In addition, for the setting “HEPG2TOX_HILL_SLOPE 3.58, HEPG2TOX_R_SQUARED 0.848, read-out: LUCIFERASE INFECTION ASSAY - IC50”, the IC50 is above 10 µM.
For `CN(CC1COc2ccccc2O1)c1ccc(C#N)cn1` (stereo not drawn), the IC90 was above 10 µM. Besides, under “HEPG2TOX_HILL_SLOPE 3.52, HEPG2TOX_R_SQUARED 0.623, PBLUC_HILL_SLOPE 1.89, PBLUC_R_SQUARED 0.914, read-out: LUCIFERASE INFECTION ASSAY - IC50”, the concentration for half-maximal inhibition (IC50) was 5.89 µM.
Regarding `NC(=O)c1cccc(-c2ccc3ncc(-c4cccnc4)n3n2)c1`, the IC90 came out at 5.41 µM. In addition, the IC50 (HEPG2TOX_HILL_SLOPE 3.58, HEPG2TOX_R_SQUARED 0.988, PBLUC_HILL_SLOPE 1.15, PBLUC_R_SQUARED 0.587, read-out: LUCIFERASE INFECTION ASSAY - IC50) stood at 0.804 µM.
On to `CCOC(=O)c1c(S(=O)(=O)Nc2ccc(OC(F)(F)F)cc2)c(-c2ccccc2)n(-c2ccccc2)c1C`, for which the IC90 is above 6.06 µM. In addition, for the setting “HEPG2TOX_HILL_SLOPE 3.6, HEPG2TOX_R_SQUARED 0.938, PBLUC_HILL_SLOPE 3.83, PBLUC_R_SQUARED 0.0999, read-out: LUCIFERASE INFECTION ASSAY - IC50”, the IC50 was 3.44 µM.
As for `Fc1cccc(-c2cnc3cnc(-c4ccncc4)cn23)c1`, the IC90 is above 11.4 µM. For the same compound, the IC50 (HEPG2TOX_HILL_SLOPE 3.65, HEPG2TOX_R_SQUARED 0.679, PBLUC_HILL_SLOPE 2.42, PBLUC_R_SQUARED 0.708, read-out: LUCIFERASE INFECTION ASSAY - IC50) is 5.64 µM.
On to `Fc1ccc(Cc2ccc3ncc(-c4ccncc4)n3n2)cc1`, for which the IC90 stood at 9.84 µM. Under “HEPG2TOX_HILL_SLOPE 3.58, HEPG2TOX_R_SQUARED 0.787, PBLUC_HILL_SLOPE 13.1, PBLUC_R_SQUARED 0.419, read-out: LUCIFERASE INFECTION ASSAY - IC50”, the IC50 is 8.32 µM.
Take `Cc1noc(N)c1-c1nc(-c2cccc(C(F)(F)F)c2)cs1`: the IC90 is above 10.1 µM. In addition, the IC50 (HEPG2TOX_HILL_SLOPE 3.53, HEPG2TOX_R_SQUARED 0.703, read-out: LUCIFERASE INFECTION ASSAY - IC50) was above 10.1 µM.
On to `N#Cc1ccccc1OC(=O)Nc1ccc(SC(F)(F)F)cc1`, for which the IC90 stood at 1.82 µM. For the same compound, under “HEPG2TOX_HILL_SLOPE 3.54, HEPG2TOX_R_SQUARED 0.941, PBLUC_HILL_SLOPE 4.88, PBLUC_R_SQUARED 0.753, read-out: LUCIFERASE INFECTION ASSAY - IC50”, the IC50 came to 1.16 µM.
As for `Cc1cc(C(=O)CN(Cc2ccco2)S(=O)(=O)/C=C/c2ccccc2)c(C)n1C`, the IC90 is above 10 µM. In addition, for the setting “HEPG2TOX_HILL_SLOPE 3.54, HEPG2TOX_R_SQUARED 0.932, PBLUC_HILL_SLOPE 9.57, PBLUC_R_SQUARED 0.198, read-out: LUCIFERASE INFECTION ASSAY - IC50”, the IC50 is 8.84 µM.
As to `Cc1[nH]c2ccccc2c1C(=O)NCC1(c2ccccc2)CCC1`, the IC90 is above 10 µM. In addition, under “HEPG2TOX_HILL_SLOPE 3.6, HEPG2TOX_R_SQUARED 0.416, PBLUC_HILL_SLOPE 3.04, PBLUC_R_SQUARED 0.598, read-out: LUCIFERASE INFECTION ASSAY - IC50”, the IC50 came to 7.33 µM.
For `COc1cc(Nc2ncc3c(n2)CCN(C(=O)Nc2ccc(F)c(Cl)c2)C3)cc(OC)c1OC`, the IC90 was above 6.76 µM. Moreover, where the note is “HEPG2TOX_HILL_SLOPE 3.56, HEPG2TOX_R_SQUARED 0.576, PBLUC_HILL_SLOPE 6.46, PBLUC_R_SQUARED 0.101, read-out: LUCIFERASE INFECTION ASSAY - IC50”, the half-maximal inhibitory concentration (IC50) came to 5.03 µM.
Take `O=C(NC1CCN(Cc2ccccc2)CC1)N1CCN(Cc2ccc(Br)s2)CC1`: the IC90 was found to be 4.35 µM. The IC50 (HEPG2TOX_HILL_SLOPE 3.62, HEPG2TOX_R_SQUARED 0.356, PBLUC_HILL_SLOPE 12.1, PBLUC_R_SQUARED 0.388, read-out: LUCIFERASE INFECTION ASSAY - IC50) turned out to be 3.62 µM.
In the case of `O=C(Nc1nc2ccccc2s1)N1CC=C(c2c[nH]c3ncccc23)CC1`, the 90% effect concentration (IC90) was above 10 µM. The IC50 (HEPG2TOX_HILL_SLOPE 3.51, HEPG2TOX_R_SQUARED 0.954, PBLUC_HILL_SLOPE 3.11, PBLUC_R_SQUARED 0.433, read-out: LUCIFERASE INFECTION ASSAY - IC50) was determined as 6.66 µM.
As for `CCCNC(=O)c1c(NC(=O)c2cccc(C#N)c2)nc2ccc(C)cn12`, the IC90 is above 9.13 µM. Further, where the note is “HEPG2TOX_HILL_SLOPE 3.59, HEPG2TOX_R_SQUARED 0.259, PBLUC_HILL_SLOPE 11, PBLUC_R_SQUARED 0.773, read-out: LUCIFERASE INFECTION ASSAY - IC50”, the IC50 is 8.46 µM.
For `COc1ccc(O)c(C(=O)c2c[nH]c(C(=O)N3CCCC3)c2)c1`, the 90% effect concentration (IC90) was above 10 µM. Further, the IC50 (HEPG2TOX_HILL_SLOPE 3.52, HEPG2TOX_R_SQUARED 0.659, PBLUC_HILL_SLOPE 0.979, PBLUC_R_SQUARED 0.275, read-out: LUCIFERASE INFECTION ASSAY - IC50) was above 10 µM.
As for `OC(COc1ccc(OC(F)(F)F)cc1)CN1CCN(c2nc3ccc(Cl)cc3s2)CC1` (stereo not drawn), the IC90 was above 6.76 µM. Moreover, the concentration for half-maximal inhibition (IC50) (HEPG2TOX_HILL_SLOPE 3.53, HEPG2TOX_R_SQUARED 0.823, PBLUC_HILL_SLOPE 2.94, PBLUC_R_SQUARED 0.35, read-out: LUCIFERASE INFECTION ASSAY - IC50) came out at 4.19 µM.
Take `CC(C)NC(=O)c1c(NC(=O)c2cccc(F)c2)nc2ccccn12`: the IC90 came to 7.41 µM. In addition, where the note is “HEPG2TOX_HILL_SLOPE 3.53, HEPG2TOX_R_SQUARED 0.8, PBLUC_HILL_SLOPE 29.8, PBLUC_R_SQUARED 0.0967, read-out: LUCIFERASE INFECTION ASSAY - IC50”, the IC50 was determined as 6.88 µM.
As for `O=S(=O)(c1ccc(Cl)cc1)c1nc(Nc2ccccc2)sc1Cl`, the concentration for an effect of 90% (IC90) is above 10 µM. In addition, the IC50 (HEPG2TOX_HILL_SLOPE 3.54, HEPG2TOX_R_SQUARED 0.784, PBLUC_HILL_SLOPE 12.5, PBLUC_R_SQUARED 0.109, read-out: LUCIFERASE INFECTION ASSAY - IC50) is 9.24 µM.
On to `COCCN1COc2c(cc(Cl)c3cccnc23)C1`, for which the concentration for an effect of 90% (IC90) worked out at 5.37 µM. Further, the IC50 (HEPG2TOX_HILL_SLOPE 3.55, HEPG2TOX_R_SQUARED 0.927, PBLUC_HILL_SLOPE 12, PBLUC_R_SQUARED 0.223, read-out: LUCIFERASE INFECTION ASSAY - IC50) worked out at 4.47 µM.
With `Cn1ccc2cc(-c3cnc4cnc(-c5ccc(F)c(Cl)c5)cn34)ccc21`, the IC90 turned out to be 3.55 µM. Besides, the IC50 (HEPG2TOX_HILL_SLOPE 3.52, HEPG2TOX_R_SQUARED 0.929, PBLUC_HILL_SLOPE 14.4, PBLUC_R_SQUARED 0.566, read-out: LUCIFERASE INFECTION ASSAY - IC50) worked out at 3.05 µM.
